Data set [1] concerns calcium ion signalling in cortical neurons. In words: Metabotropic receptor function: calcium ion signalling (fura 2) in intact cortical neurons. It counts as cell-based, chick. The note with it: neurons loaded to 150±20 pmoles per mg protein; 10 μM glutamate agonist 30 minutes. The method, then: Metabotropic receptor function was examined in intact neurons by assaying lysosphingolipid modulation of calcium ion signalling. Approximately 1×10^6 cortical neurons were cultured on rectangular L-polylysine-coated coverslips and loaded with lysocerebroside or lysosphingomyelin to a level of 150±20 pmoles per mg protein. The neurons were returned to complete Ham's high glucose medium/DMEM (1:1, vol:vol) and infiltrated with 5 μM fura 2/AM (Molecular Probes, Eugene, Oreg.). Fura 2 is a calcium chelator whose fluorescence absorbance shifts to shorter wavelength upon calcium ion binding is measurable in intact cells. A change in intraneuronal calcium ion concentration was monitored as a change in the fluorescence spectrum.
The neurons were exposed to 10 μM glutamate agonist (for example, ibotenate) for 30 minutes at 37° C. The coverslips were then transferred to quartz cuvettes in medium containing 250 μM sulfinpyrazone to prevent fura 2/AM diffusion. Fluorescence ratios were recorded in a Perkin-Elmer LS-5 Fluorescence Spectrometer thermostatted at 37° C. at excitation wavelengths of 340 and 380 nm, a nd emission measurement at 500 nm. Calcium ion signalling in agonist-stimulated neurons was 3.0±0.2 arbitrary units for ibotenate-exposed neurons.

The test system of data set [2] is hippocampal neurons. In words: Histological analysis of brain 7 days after ICV infusion (cresyl violet). In kind it is in vivo, male F344 rats. The note with it: for HISTOLOGICAL CHANGES: rat. The method, then:
Before administering various compounds, the animals were anesthetized with sodium pentobarbital (50 mg/kg, i.p.) and positioned in a sterotaxic instrument. A 26 gauge cannula was inserted into the cerebral ventricle at the following co-ordinates: 1.0 mm posterior to bregma, 1.5 mm lateral to the midline, and 4.0 mm below the dorsal surface of the neocortex. Cannulas were capped and fixed in place with dental cement. One week after cannulation, 10 μl of each of the treatment drugs was infused, ICV (i.e. into the ventricals of the brain), via a micropump at a rate of 10 μl/min. For this procedure, the animals were lightly restrained and unanesthetized. Following administration of the compound, the infusion cannula remained in position for one minute, after which the permanent in situ cannula was capped.
Seven days after the compounds were administered, animals were sacrificed by transcardial perfusion with neutralized, buffered 10% formalin-saline. Their brains were removed, post-fixed overnight in 10% formalin-saline, and sectioned along the coronal plane (into 50 μm thick sections) on a freezing microtome. The sections were stained with cresyl violet to determine the extent of cellular destruction. […]
Given that high concentrations of metabotropic receptors are located in the hippocampus, and that the hippocampus is particularly vulnerable to the effects of a variety of insults including ischemia and hypoxia, this region was examined for evidence of neuronal degeneration due to glutamate excitotoxicity.

In data set [3] the test system is astrocytes. The note with it: cited from earlier work.
Data set [4] concerns cultured neurons. Kind of data set: Lysosphingolipid content of cultured neurons by NBDZF fluorescence tagging. As to conditions: for lysosphingolipid content, 0 hours of incubation / lysosphingolipid content, 0.5 hours of incubation / lysosphingolipid content, 1.0 hours of incubation / lysosphingolipid content, 2.0 hours of incubation / lysosphingolipid content, 3.0 hours of incubation: Intact neurons, 10 μmolar exposure; for content of sphingosine in the neurons following exposure: exposure to 50 μM lysosphingolipid, 1 hour. It counts as cell-based, chick. From the text:
Agonist-binding to metabotropic receptors influences the levels of lysosphingolipid in neuronal membranes. However, there is no convenient methodology available for the measurement of lysosphingolipid content in cultured neurons. As a result, a sensitive method of fluorometric tracing has been devised and is described herein. The measurement of lysosphingolipid content in cultured neurons is based on the stable fluorescence-tagging procedure using 4-fluoro, 7-nitrobenzofuran (NBDZF) described by Nozowa et al J. Neurochem. 59:607-609, 1992). The procedure was applied to: resting neurons; neurons exposed to 100 μM metabotropic receptor agonist for 1 hour; resting neurons exogenously enriched in lysosphingolipids; and neurons exogenously enriched in lysosphingolipids and exposed to metabotropic receptor agonist for 1 hour. The neurons were scraped in batches of 107 (1 Petri dish, approximately 8 cm in diameter, is equivalent to 2 mg membrane protein) and subjected to anaylsis.
Total lipids were removed from the neuron samples by repeated extraction with chloroforn:methanol (2:1, vol:vol). The lysosphingolipids were separated from total neuronal lipid in 90±5% recovery yield (n=10) by the stepped chromatographic procedure of Van Veldhoven et al. (Anal. Biochem. 183:177-189, 1989). The recovered lysosphingolipids were stably tagged with NBDZF by the rapid procedure of Nozowa et al. (supra). The fluorescence tagged neuronal lysosphingolipids were separated in parallel with reference standards NBDZF-Sph, NBDZF-Psy, and NBDZF-Lsm on high performance silica gel thin layer chromatography plates with acetonitrile:H2 O (10:0.5, vol:vol). The highly fluorescent, well separated bands were scraped from the plate. The fluorescence tagged lysosphingolipids are eluted from the scraped silica gel with methanol:1 N HCl (1:0.02, vol:vol). The fluorescence tagged lysosphingolipid eluates were quantitated against reference standards by fluorescence measurement in a Perkin-Elmer LS-5 Fluorescence Spectrometer.
Sphingolipid content of neurons exposed to sphingosine, lysocerebroside, and lysosphingomyelin was examined as follows. A Petri dish containing approximately 107 neurons was incubated with 5 μCi [^3 H]myo-Ins in 3 ml DMEM overnight to prelabel the phosphoinositide InsP3 may contain. The neurons were washed with PBS and 3 ml of PBS containing 4.5 g/l glucose was added. Preparations of sphingosine, lysocerebroside, lysosphingomyelin (Sigma Chemical Co., St. Louis, Mo.) and combinations of each were prepared as the hydrochloride salt dissolved in PBS. The lysosphingolipids were added to the Petri dishes to produce a concentration ranging from 0-150 μM. […] Trypsinization removes non-specifically bound lysosphingolipids that may adhere to extracellular plasma membrane protein domain s. Non-specific adherence between cationic micelles of lysosphingolipids and the neuronal glycocatyx avoided by performing the experiments with lysosphingolipid concentrations below the critical micelle concentration. Neurons were analyzed for lysosphingolipid content as described above.

Entries after “also recorded” stand apart in the source; their conditions may differ.

In the case of `CCCCCCCCCCCCC/C=C/[C@@H](O)[C@@H](N)COP(=O)([O-])OCC[N+](C)(C)C` [lysosphingomyelin, sphingosyl phosphoryicholine], in data set [1], the “agonist-elicited calcium signalling in lysosphingolipid-loaded neurons” value is “no calcium signalling measurably over controls”.

In the case of `N[C@@H](Cn1oc(=O)[nH]c1=O)C(=O)O` [Quisqualate, quisqualate], the “HISTOLOGICAL CHANGES” value is “none observed” in data set [2] (Quisqualate 100 nmoles ICV); “none observed” in data set [2] (Quisqualate 150 nmoles ICV); “loss of CA1” in data set [2] (Quisqualate 225 nmoles ICV, seven days after application); “severe loss of neurons in the hippocampus; also recorded: considerable loss of CA1 pyramidal neurons in the hippocampus” in data set [2] (Quisqualate 225 nmoles ICV, seven days after application, listed as quisqualate); “severe loss of neurons in the hippocampus” in data set [2] (Quisqualate 250 nmoles ICV, seven days after application, listed as quisqualate); “loss of neurons” in data set [2] (Quisqualate 500 μmoles ICV).

Regarding `CCCCCCCCCCCCC/C=C/[C@@H](O)[C@@H](N)CO[C@@H]1O[C@H](CO)[C@H](O)[C@H](O)[C@H]1O` [psychosine, lysocerebroside], the “agonist-elicited calcium signalling in lysosphingolipid-loaded neurons” value in data set [1] was “no calcium signalling measurably over controls”. In addition, in data set [3], the “InsP3 production in astrocytes” value is given as “inhibited”. In data set [4], the “lysosphingolipid content, 0 hours of incubation” value is listed as 25 ± 5 pmoles lysosphingolipid/mg pla; the “lysosphingolipid content, 0.5 hours of incubation” value is 35 ± 15 pmoles lysosphingolipid/mg pla; the “lysosphingolipid content, 1.0 hours of incubation” value is reported as 45 ± 10 pmoles lysosphingolipid/mg pla; the “lysosphingolipid content, 2.0 hours of incubation” value is recorded as 80 ± 5 pmoles lysosphingolipid/mg pla. Also, in data set [4], the “lysosphingolipid content, 3.0 hours of incubation” value is listed as 80 ± 5 pmoles lysosphingolipid/mg pla and the “content of sphingosine in the neurons following exposure” value is reported as 220±45 pmoles/mg protein. For the same compound, the “neuronal loss (CA1 pyramidal neurons, hippocampus) caused by quisqualate” value in data set [2] (pretreatment with psychosine 125 nmoles, quisqualate 225 nmoles ICV, 7 days) is on record as “prevents the neuronal loss caused by quisqualate”.

`CCCCCCCCCCCCC/C=C/[C@@H](O)[C@@H](N)CO` [sphingosine]: the “InsP3 production in astrocytes” value in data set [3] is given as “enhanced”. In data set [4], the “lysosphingolipid content, 0 hours of incubation” value is 85 ± 15 pmoles lysosphingolipid/mg pla; the “lysosphingolipid content, 0.5 hours of incubation” value is on record as 85 ± 20 pmoles lysosphingolipid/mg pla; the “lysosphingolipid content, 1.0 hours of incubation” value is recorded as 110 ± 15 pmoles lysosphingolipid/mg pla; the “lysosphingolipid content, 2.0 hours of incubation” value is recorded as 105 ± 5 pmoles lysosphingolipid/mg pla. Further, in data set [4], the “lysosphingolipid content, 3.0 hours of incubation” value is reported as 115 ± 15 pmoles lysosphingolipid/mg pla and the “content of sphingosine in the neurons following exposure” value is 430±70 pmoles/mg protein.
